{"source": "patent US20250000785A1", "about": "“COSMETIC COMPOSITION COMPRISING CRANBERRY EXTRACT AND CRANBERRY SEED OIL” (Givaudan SA, priority 2021, published 2025)", "tested_on": "TNF-α release of Normal Human Epidermal Keratinocytes (NHEKs) stressed with PMA", "test": "TNF-α release by NHEKs stressed with PMA (ELISA quantification, normalised with MTT)", "type": "cell-based", "conditions": "dexamethasone 1 μM, 24 h pre-incubation, then PMA 1 ng/ml 24 h; vs untreated PMA-stressed NHEKs; p<0.001", "experimental": "The effect of a cranberry extract, a cranberry seed oil and combinations of a cranberry extract and a cranberry seed oil on the anti-inflammatory activity of keratinocytes stressed with PMA was evaluated by comparing the decrease of the cytokine TNF-α release of Normal Human Epidermal Keratinocytes (NHEKs) treated with the cranberry products and stressed with PMA (Phorbol 12-myristate 13-acetate) with the TNF-α release of untreated NHEKs stressed with PMA.\nThe cell culture was done on primary cells isolated from fresh biopsies. NHEKs were seeded in a type I collagen pre-coated 24 wells-plate at 30 000 cells per well in triplicate. […]\nA MTT assay was performed to evaluate treatments toxicity and for the normalisation of TNF-α quantification.\nMTT solution (Sigma) diluted at 1 mg/mL in basal medium was added to each well and incubated for 3 hours at 37° C., 5% CO2. […] The optical density was measured at a wavelength of 560 nm.\nThe TNF-α quantification was realized with the Human TNF-alpha Quantikine ELISA kit (DTA00D, R&D Systems).\nThe samples and the standard range were incubated for 2 hours in 96-wells plate pre-coated with a monoclonal antibody specific for human TNF-α in presence of the Assay Diluent RD1F. […] The optical density was measured at 450 nm and 540 nm with a microplate reader (TECAN SPARK® 10M). […]\nThe quantification was carried out in duplicate. […]"}
{"compound": "C[C@@H]1C[C@H]2[C@@H]3CCC4=CC(=O)C=C[C@]4(C)[C@@]3(F)[C@@H](O)C[C@]2(C)[C@@]1(O)C(=O)CO", "note": "[dexamethasone, Dexamethasone]", "values": [{"measurement": "reduction of the release of cytokine TNF-α", "value": 46, "unit": "%"}]}
